Results as given in patent publication EP4168396B1, “COMPOUNDS FOR THE TREATMENT OF NEURODEGENERATIVE DISEASES” (Universite De Franche Comte, priority 2020, dated 2021).
Like-named read-outs stand apart in the source and are kept apart here.

Tests used:
[1] = target: T1, Human butyrylcholinesterase (hBuChE) (Homo sapiens, UniProt P06276); assay: Cholinesterase inhibition assay (Ellman), hBuChE; type: biochemical
T1 construct: Human butyrylcholinesterase (hBuChE) isolated from human plasma was from Vivonics; purchased Vivonics (Bedford, MA, USA); host or cells: human plasma
T1 sequence (P06276 29-602): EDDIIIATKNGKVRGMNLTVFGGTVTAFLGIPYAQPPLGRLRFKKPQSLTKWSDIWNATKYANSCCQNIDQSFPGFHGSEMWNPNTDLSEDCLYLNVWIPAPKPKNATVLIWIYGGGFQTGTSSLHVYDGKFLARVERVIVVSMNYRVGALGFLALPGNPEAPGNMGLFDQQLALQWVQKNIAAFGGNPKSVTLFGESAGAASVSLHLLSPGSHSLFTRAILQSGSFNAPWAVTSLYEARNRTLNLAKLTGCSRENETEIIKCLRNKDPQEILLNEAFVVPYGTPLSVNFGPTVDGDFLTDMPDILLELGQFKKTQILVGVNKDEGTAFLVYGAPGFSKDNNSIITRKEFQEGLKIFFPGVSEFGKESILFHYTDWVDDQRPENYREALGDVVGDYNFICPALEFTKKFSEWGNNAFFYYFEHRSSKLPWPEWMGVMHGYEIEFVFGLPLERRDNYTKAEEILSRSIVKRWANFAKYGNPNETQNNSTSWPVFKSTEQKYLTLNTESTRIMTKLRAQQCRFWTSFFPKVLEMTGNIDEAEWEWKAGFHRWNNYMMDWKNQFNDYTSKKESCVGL
Experimental: Inhibitory activities of the test compounds against the human cholinesterases were measured using the spectrophotometric method described by Ellman et al.^4, as modified for 96-well microplates. 5,5'-Dithiobis-(2-nitrobenzoic acid) (DTNB), acetylthiocholine iodide (ATC), butyrylthiocholine iodide (BTC), and human recombinant acetylcholinesterase (hAChE) were purchased from Sigma-Aldrich. Human butyrylcholinesterase (hBuChE) isolated from human plasma was from Vivonics (Bedford, MA, USA). […] The stock solutions of the test compounds were prepared by dissolving in DMSO to obtain a concentration of 0.0034M. They were further diluted in water to give appropriate concentration in a well. In the first step of Ellman's method 25 µL of the test compound (or mixture DMSO/water in appropriate ratio; i.e. blank samples) was incubated in 0.1 M phosphate buffer (200 µL, pH= 8.0) with DTNB (20 µL; 0.0025M) and the enzyme (20 µL; hAChE or hBuChE) in temperature 36 °C. […] All compounds were tested at screening concentration of 10 µM. Percent of inhibition was calculated from 100-(S/B)×100, where S and B were the respective enzyme activities with and without the test sample, respectively. […] All reactions were performed in triplicate. The IC50 values were calculated using nonlinear regression (GraphPad Prism 5 [GraphPad Software, San Diego California USA 5.00]) by plotting the residual enzyme activities against the applied inhibitor concentration. Tacrine was used as a reference compound.

Human recombinant GSK-3β = target: T2, Human recombinant GSK-3β (Homo sapiens, UniProt P49841); assay: GSK-3β inhibition in vitro assay (Kinase-Glo luminescence); type: biochemical
T2 construct: purchased Millipore (Millipore Iberica S.A.U.)
T2 sequence (P49841 whole entry): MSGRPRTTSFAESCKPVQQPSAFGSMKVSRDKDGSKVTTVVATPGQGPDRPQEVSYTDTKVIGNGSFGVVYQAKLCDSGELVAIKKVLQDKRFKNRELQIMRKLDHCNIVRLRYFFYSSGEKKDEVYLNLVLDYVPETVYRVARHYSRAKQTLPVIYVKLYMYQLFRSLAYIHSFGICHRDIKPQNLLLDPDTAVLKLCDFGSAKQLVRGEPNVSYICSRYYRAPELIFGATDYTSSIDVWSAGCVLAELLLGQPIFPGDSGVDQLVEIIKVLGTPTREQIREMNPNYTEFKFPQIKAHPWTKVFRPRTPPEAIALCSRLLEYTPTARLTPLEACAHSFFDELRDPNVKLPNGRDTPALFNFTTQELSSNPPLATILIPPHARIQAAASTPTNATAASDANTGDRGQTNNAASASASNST
Experimental: Human recombinant GSK-3β, prephosphorylated polypeptide substrate and white 96-well plates were purchased from Millipore (Millipore Iberica S.A.U.). Kinase-Glo Luminescent Kinase Assay was obtained from Promega (Promega Biotech Iberica, SL). Adenosinetriphosphate (ATP) and all other reagents were from Sigma-Aldrich. Assay buffer contained 50 mM 4-(2-hydroxyethyl)-1- piperazineethanesulfonic acid (HEPES) (pH 7.5), 1 mM ethylenediaminetetraacetic acid (EDTA), 1 mM ethylene glycol tetraacetic acid (EGTA), and 15 mM magnesium acetate. The in solution experiments for GSK-3β inhibition analysis were performed by following the method developed by Baki et al.^18. In a typical assay, 10 µL of test compound (dissolved in DMSO at 1 mM concentration and diluted in advance in assay buffer to the desired concentration) and 10 µL (20 ng) of enzyme were added to each well in presence of 20 µL of assay buffer containing GSM substrate and ATP in order to reach a 25 µM and 1 µM final concentration respectively. […] After a 30 min incubation time at 30 °C, the enzymatic reaction was stopped by adding 40 µL of Kinase-Glo reagent. Glow-type luminescence was recorded after 10 min using a VictorX 3 PerkinElmer plate reader. […]. The linear regression parameters were determined and the IC50 extrapolated (GraphPad Prism 4.0, GraphPad Software Inc.).

[2] = test system: voltage-gated Ca^2+ channels (VGCC); assay: Calcium channel antagonist assay (cytosolic Ca2+, Fluo-4); type: cell-based; settings: SH-SY5Y cells, K+ 70 mM
Experimental: The cytosolic Ca2+ has been measured in SH-SY5Y cells. SH-SY5Y cells were maintained similarly to what was previously described56. Free cytosolic Ca2+ was measured using the fluorescent Ca2+ indicator Fluo-4/AM (Fluo-4 acetomethoxyester). SH-SY5Y cells were seeded onto 96-well black plates at a density of 10^5 cells per well, achieving confluence after 48 h. Cells were washed with Krebs-Hepes solution (KH, in mM: 144 NaCl, 5.9 KCl, 1.2 MgCl2, 2 CaCl2, 11 D-glucose, 10 HEPES, pH 7.4). Cells were loaded with 10 µM Fluo-4/AM and 0.2% pluronic acid in KH and incubated for 45 min at 37 °C in the dark. Then, cells were washed twice with KH to remove the excess of probe. Tested compounds were incubated 10 min before K+ 70 mM was applied to evoke the increment of cytosolic Ca2+. To normalize Fluo-4 signals, Triton X-100 (5%) and 1 M MnCl2 were applied to register both maximal and minimal fluorescence, respectively. The experiments were analyzed at excitation and emission wavelengths of 485 and 520 nm, respectively, and fluorescence was measured in a fluorescence microplate reader (FLUOstar Optima, BMG, Germany). Data were calculated as a percentage of Fmax - Fmin.
The blocking effect of the depolarization-induced Ca^2+ uptake was investigated in SH-SY5Y neuroblastoma cells stimulated with an extracellular concentration of K^+ 70 mM, which induces the cell Ca^2+ levels elevation by opening voltage-gated Ca^2+ channels (VGCC), monitored with the Ca^2+-sensitive fluorescent dye Fluo-4. Nimodipine was used as positive standard.

[3] = target: T3, human recombinant acetylcholinesterase (hAChE) (Homo sapiens, UniProt P22303); assay: Cholinesterase inhibition assay (Ellman), hAChE; type: biochemical
T3 construct: purchased Sigma-Aldrich
T3 sequence (P22303 32-614): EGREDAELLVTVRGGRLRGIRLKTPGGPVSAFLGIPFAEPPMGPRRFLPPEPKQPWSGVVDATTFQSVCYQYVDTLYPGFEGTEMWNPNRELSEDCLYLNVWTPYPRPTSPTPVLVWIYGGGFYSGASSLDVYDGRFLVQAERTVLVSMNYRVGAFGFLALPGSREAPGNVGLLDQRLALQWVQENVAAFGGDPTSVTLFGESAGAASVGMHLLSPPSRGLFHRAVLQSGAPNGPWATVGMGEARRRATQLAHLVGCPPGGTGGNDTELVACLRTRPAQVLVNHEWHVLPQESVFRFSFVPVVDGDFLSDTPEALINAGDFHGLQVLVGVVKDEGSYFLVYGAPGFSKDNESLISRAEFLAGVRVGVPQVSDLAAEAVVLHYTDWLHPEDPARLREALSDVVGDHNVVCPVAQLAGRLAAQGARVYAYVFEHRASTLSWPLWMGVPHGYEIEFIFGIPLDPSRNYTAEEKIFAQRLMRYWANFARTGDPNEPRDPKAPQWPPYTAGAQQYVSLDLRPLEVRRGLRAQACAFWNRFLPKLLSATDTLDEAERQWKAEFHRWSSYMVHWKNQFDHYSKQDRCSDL
Experimental: Inhibitory activities of the test compounds against the human cholinesterases were measured using the spectrophotometric method described by Ellman et al.^4, as modified for 96-well microplates. 5,5'-Dithiobis-(2-nitrobenzoic acid) (DTNB), acetylthiocholine iodide (ATC), butyrylthiocholine iodide (BTC), and human recombinant acetylcholinesterase (hAChE) were purchased from Sigma-Aldrich. Human butyrylcholinesterase (hBuChE) isolated from human plasma was from Vivonics (Bedford, MA, USA). […] In the first step of Ellman's method 25 µL of the test compound (or mixture DMSO/water in appropriate ratio; i.e. blank samples) was incubated in 0.1 M phosphate buffer (200 µL, pH= 8.0) with DTNB (20 µL; 0.0025M) and the enzyme (20 µL; hAChE or hBuChE) in temperature 36 °C. […] All compounds were tested at screening concentration of 10 µM. Percent of inhibition was calculated from 100-(S/B)×100, where S and B were the respective enzyme activities with and without the test sample, respectively. […] All reactions were performed in triplicate. The IC50 values were calculated using nonlinear regression (GraphPad Prism 5 [GraphPad Software, San Diego California USA 5.00]) by plotting the residual enzyme activities against the applied inhibitor concentration. Tacrine was used as a reference compound.

human H3 receptor = target: T4, human H3 receptor (Homo sapiens, UniProt Q9Y5N1); assay: H3 Receptor Binding Assay (radioligand binding); settings: membranes from CHO-K1 cells, [3H]-N-α-methylhistamine 1.0 nM; read-out: H3R Ki [nM] ± SEM
T4 construct: expressed in transfected cells; host or cells: CHO-K1
T4 sequence (Q9Y5N1 whole entry): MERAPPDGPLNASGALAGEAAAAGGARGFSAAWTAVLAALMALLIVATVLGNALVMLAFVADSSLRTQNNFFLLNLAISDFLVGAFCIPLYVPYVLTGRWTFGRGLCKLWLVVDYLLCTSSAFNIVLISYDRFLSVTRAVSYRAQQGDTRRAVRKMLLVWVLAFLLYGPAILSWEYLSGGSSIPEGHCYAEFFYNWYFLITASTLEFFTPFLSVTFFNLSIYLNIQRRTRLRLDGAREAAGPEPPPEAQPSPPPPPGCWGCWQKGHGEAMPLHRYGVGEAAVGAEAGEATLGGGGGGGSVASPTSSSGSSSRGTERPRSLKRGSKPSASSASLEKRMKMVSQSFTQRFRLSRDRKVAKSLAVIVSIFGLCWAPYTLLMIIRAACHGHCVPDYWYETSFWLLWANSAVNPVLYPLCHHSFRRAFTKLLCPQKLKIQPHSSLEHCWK
Experimental: 10 mM stock solutions of compounds to be tested were prepared in DMSO.
Radioligand binding was performed using membranes from CHO-K1 cells stably transfected with the human H3 receptor. All assays were carried out in duplicates. 50 µl working solution of the tested compounds, 50 µl [3H]-N-α-methylhistamine (spec. act. 82.9 Ci/mmol, final concentration 1.0 nM) and 150 µl diluted membranes (15 µg protein per well) prepared in assay buffer (50 mM Tris, pH 7.4, 5 mM MgCl2) were transferred to polypropylene 96-well microplate using 96-wells pipetting station Rainin Liquidator (MettlerToledo). […] Microplate was covered with a sealing tape, mixed and incubated for 60 minutes at 27°C. The reaction was terminated by rapid filtration through GF/B filter mate presoaked with 0.5% polyethyleneimine for 30 minutes. Five rapid washes with 300 µl 50 mM Tris buffer (4°C, pH 7.4) were performed using 96-well FilterMate harvester (PerkinElmer, USA). The filter mates were dried at 37°C in forced air fan incubator and then solid scintillator MeltiLex was melted on filter mates at 90°C for 4 minutes. Radioactivity was counted in MicroBeta2 scintillation counter (PerkinElmer). Data were fitted to a one-site curve-fitting equation with Prism 5 (GraphPad Software) and Ki values were estimated from the Cheng-Prusoff equation.

[4] = read-out: cholinesterases inhibition

Row | SMILES | IC50 [1] [nM] | IC50 (Human recombinant GSK-3β; read-out: Gsk3β IC50) [nM] | Calcium Channel % inhibition at 10µM [2] [%] | IC50 [3, 4] [nM] | IC50 ([3]; read-out: hAChE IC50) [nM] | Ki (human H3 receptor) [nM] | IC50 (Human recombinant GSK-3β) [nM]
1 | CCOC(=O)C1=C(C)N(CCC2CCN(Cc3ccccc3)CC2)C(=O)NC1c1ccc(OCCCCN2CCCC2)cc1 (stereo not drawn) [BIGI-BIH-D1, Ethyl 1-(2-(1-benzylpiperidin-4-yl)ethyl)-6-methyl-2-oxo-4-(4-(4-(pyrrolidin-1-yl)butoxy)phenyl)-1,2,3,4-tetrahydropyrimidine-5-carboxylate] | 1720 ± 119 | 59800 | 5 | 63 | 63 ± 1 | 2.8 ± 0.2 | –
2 | CCOC(=O)C1=C(C)N(CCC2CCN(Cc3ccccc3)CC2)C(=O)NC1c1ccc(OCCCCN2CCCCC2)cc1 (stereo not drawn) [BIGI-BIH-D2, Ethyl 1-(2-(1-benzylpiperidin-4-yl)ethyl)-6-methyl-2-oxo-4-(4-(4-(piperidin-1-yl)butoxy)phenyl)-1,2,3,4-tetrahydropyrimidine-5-carboxylate] | 928 ± 32 | 106000 | 13 | 123 | 67 ± 1 | 0.6 ± 0.08 | –
3 | CCOC(=O)C1=C(C)N(CCC2CCN(Cc3ccccc3)CC2)C(=O)NC1c1ccc(OCCCCN2CCOCC2)cc1 (stereo not drawn) [BIGI-BIH-D3, Ethyl 1-(2-(1-benzylpiperidin-4-yl)ethyl)-6-methyl-4-(4-(4-morpholinobutoxy)phenyl)-2-oxo-1,2,3,4-tetrahydropyrimidine-5-carboxylate] | – | 126000 | 23 | – | 123 ± 2 | 12 ± 0.5 | –
4 | CCOC(=O)C1=C(C)N(CCC2CCN(Cc3ccccc3)CC2)C(=O)NC1c1ccc(OCCCCCN2CCCC2)cc1 (stereo not drawn) [BIGI-BIH-D4, Ethyl 1-(2-(1-benzylpiperidin-4-yl)ethyl)-6-methyl-2-oxo-4-(4-((5-(pyrrolidin-1-yl)pentyl)oxy)phenyl)-1,2,3,4-tetrahydropyrimidine-5-carboxylate] | 1390 ± 66 | – | 22 | – | 88 ± 2 | 0.5 ± 0.05 | 60500
5 | CCOC(=O)C1=C(C)N(CCC2CCN(Cc3ccccc3)CC2)C(=O)NC1c1ccc(OCCCCCN2CCCCC2)cc1 (stereo not drawn) [BIGI-BIH-D5, Ethyl 1-(2-(1-benzylpiperidin-4-yl)ethyl)-6-methyl-2-oxo-4-(4-((5-(piperidin-1-yl)pentyl)oxy)phenyl)-1,2,3,4-tetrahydropyrimidine-5-carboxylate] | 1280 ± 72 | 26300 | 34 | – | 67 ± 1 | 0.3 ± 0.07 | –
6 | CCOC(=O)C1=C(C)N(CCC2CCN(Cc3ccccc3)CC2)C(=O)NC1c1ccc(OCCCCCN2CCOCC2)cc1 (stereo not drawn) [BIGI-BIH-D6, Ethyl 1-(2-(1-benzylpiperidin-4-yl)ethyl)-6-methyl-4-(4-((5-morpholinopentyl)oxy)phenyl)-2-oxo-1,2,3,4-tetrahydropyrimidine-5-carboxylate] | – | 56600 | 39 | – | 115 ± 2 | 0.6 ± 0.05 | –
7 | CCOC(=O)C1=C(C)N(CCC2CCN(Cc3ccccc3)CC2)C(=O)NC1c1ccc(OCCCCCCN2CCCC2)cc1 (stereo not drawn) [BIGI-BIH-D7, Ethyl 1-(2-(1-benzylpiperidin-4-yl)ethyl)-6-methyl-2-oxo-4-(4-((6-(pyrrolidin-1-yl)hexyl)oxy)phenyl)-1,2,3,4-tetrahydropyrimidine-5-carboxylate] | 768 ± 13 | 30600 | 47 | – | 89 ± 2 | 0.2 ± 0.04 | –
8 | CCOC(=O)C1=C(C)N(CCC2CCN(Cc3ccccc3)CC2)C(=O)NC1c1ccc(OCCCCCCN2CCCCC2)cc1 (stereo not drawn) [BIGI-BIH-D8, Ethyl 1-(2-(1-benzylpiperidin-4-yl)ethyl)-6-methyl-2-oxo-4-(4-((6-(piperidin-1-yl)hexyl)oxy)phenyl)-1,2,3,4-tetrahydropyrimidine-5-carboxylate] | 1250 ± 46 | 68200 | 60 | – | 86 ± 2 | 0.2 ± 0.02 | –
9 | CCOC(=O)C1=C(C)N(CCC2CCN(Cc3ccccc3)CC2)C(=O)NC1c1ccc(OCCCCCCN2CCOCC2)cc1 (stereo not drawn) [BIGI-BIH-D9, Ethyl 1-(2-(1-benzylpiperidin-4-yl)ethyl)-6-methyl-4-(4-((6-morpholinohexyl)oxy)phenyl)-2-oxo-1,2,3,4-tetrahydropyrimidine-5-carboxylate] | – | – | 61 | – | 115 ± 2 | 3 ± 0.4 | 38600
10 | COCCOC(=O)C1=C(C)NC(C)=C(C(=O)OC(C)C)C1c1cccc([N+](=O)[O-])c1 (stereo not drawn) [Nimodipine, reference compound] | – | – | 38 | – | – | – | –
